Consider 5 molecules from article PMC3069055, “Structural Asymmetry of Phosphodiesterase-9, Potential Protonation of a Glutamic Acid, and Role of the Invariant Glutamine” (PLoS ONE, 2011).

Values joined by “and” are separate entries in the source; they are usually repeats but may differ in a detail not shown here. Equal entries are not always repeated. Where two headings read alike, the source gives them in different places.

The target of series [1] is T1, PDE9A2 Q453E mutant (PDE9Q453E) (Homo sapiens, UniProt O76083, Q513E).
T1 construct: The catalytic domain of the PDE9Q453E mutant (10–15 mg/mL, amino acids 181–506); made in house; host or cells: E. coli BL21 (Codonplus)
Put plainly: PDE9A2 enzymatic assay, IC50 of inhibitors (3H-cGMP substrate). It counts as biochemical. The method, then:
(§1) Each measurement was repeated two times. The reaction was carried out at room temperature for 15 min and then terminated by the addition of 0.2 M ZnSO4 and 0.2 M Ba(OH)2. […] Vmax and KM values were calculated by nonlinear regression on the curve of velocity versus substrate concentration and also by Eadie-Hofstee plot. […] The IC50 values were calculated by nonlinear regression.

The target of series [2] is T2, PDE9A2 E406A mutant (Homo sapiens, UniProt O76083, E466A).
T2 construct: The coding region for residues 181-506 of PDE9A2 was amplified by PCR; inferred from vector pET15b and Ni-NTA purification) (N); made in house; host or cells: E. coli BL21 (Codonplus)
The series is described as above. It is filed as biochemical. The method, then:
as §1

Series [3] deals with T3, wild type PDE9A2 catalytic domain (Homo sapiens, UniProt O76083).
T3 construct: The coding region for residues 181-506 of PDE9A2 was amplified by PCR; inferred from vector pET15b and Ni-NTA purification) (N); made in house; host or cells: E. coli BL21 (Codonplus)
The description is as above. It counts as biochemical. Here is the method: as §1

Series [4] addresses T2, PDE9A2 E406A mutant. Put plainly: Enzymatic assay, kinetic parameters with cAMP and cGMP as substrates. It is filed as biochemical. Here is the method:
as §1

For series [5], the target named is T1, PDE9A2 Q453E mutant (PDE9Q453E). Described as above. It counts as biochemical. Here is the method: as §1
In series [6] the target is T3, wild type PDE9A2 catalytic domain. The description is as above. It counts as biochemical. The note with it: substrate. Here is the method: as §1
For another series, the system named is PDE5A Q817A mutant. The note with it: PDE5A Q817A versus wild type; cited from earlier work.
Series [7] deals with the molecule itself. In words: crystal structure; PDE9Q453E catalytic domain (10-15 mg/mL) co-crystallised with 2 mM IBMX, hanging drop, 2.0 M Na formate, 0.1 M HEPES pH 7.5, 5% xylitol, 4°C; (S)-BAY73-6691 complex by soaking; two molecules in the asymmetric unit.
Setting [8] is: E406A compared with wild type enzyme.

T3 sequence (O76083 241-566): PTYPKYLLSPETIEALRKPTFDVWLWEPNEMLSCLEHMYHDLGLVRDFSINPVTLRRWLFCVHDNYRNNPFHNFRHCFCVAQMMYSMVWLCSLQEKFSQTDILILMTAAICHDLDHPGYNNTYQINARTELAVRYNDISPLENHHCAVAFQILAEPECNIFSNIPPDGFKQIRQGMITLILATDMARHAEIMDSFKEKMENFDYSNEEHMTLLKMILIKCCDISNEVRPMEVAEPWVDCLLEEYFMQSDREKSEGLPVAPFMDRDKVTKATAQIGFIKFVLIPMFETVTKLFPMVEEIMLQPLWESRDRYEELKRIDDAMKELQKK
T2 sequence (O76083 241-566 E466A): as the sequence (O76083 241-566) above, with E226A counted along it

Take `C[C@@H](Cc1nc2c(cnn2-c2ccccc2Cl)c(=O)[nH]1)C(F)(F)F` [(S)-BAY73-6691, 1-(2-chlorophenyl)-6-(3,3,3-trifluoro-2-methylpropyl)-1H-pyrazolo [3,4-d]pyrimidin-4(5H)-one]: in series [1] (Q453E IC50 relative to wild type IC50), the “fold increase of IC50 (affinity decrease), Q453E mutant versus wild type” value is > 1800 fold and 1800 fold.

As usually defined, the IC50 is the midpoint of a concentration-inhibition curve. In the case of `CC(C)Cn1c(=O)n(C)c(=O)c2[nH]cnc21` [IBMX, 3-isobutyl-1-methylxanthine], the IC50 against PDE9A2 E406A mutant [2] is 31.7 ± 1.1 µM; in series [3], 53.9 ± 1.1 µM.

`CCCOc1ccccc1-c1nc2nn[nH]c2c(=O)[nH]1` [Zaprinast]: the IC50 at PDE9A2 E406A mutant [2] (E406A mutant, 30 nM 3H-cGMP, read-out: IC50) stood at 7.6 ± 1.1 µM; in series [1] (Q453E mutant, 30 nM 3H-cGMP) it was 53.7 ± 1.2 µM; in series [3] (wild type enzyme, 30 nM 3H-cGMP, read-out: IC50), 15.9 ± 1.2 µM.

As a reminder, the Km is the substrate concentration at which the rate is half of its maximum. As usually defined, the Vmax is the rate approached at saturating substrate. For `Nc1nc2c(ncn2[C@@H]2O[C@@H]3COP(=O)(O)O[C@H]3[C@H]2O)c(=O)[nH]1` [cGMP], at PDE9A2 E406A mutant [4] (setting [8]), the “fold reduction of apparent affinity, E406A versus wild type” value was 2 fold and the “fold reduction of catalytic activity, E406A versus wild type” value is recorded as 2 fold. Besides, at PDE9A2 E406A mutant [4] (E406A, substrate), the Km is 0.311 ± 0.04 µM, the Vmax is 0.129 ± 0.004 µmol/mg/min and the kcat is given as 0.08±0.00 S^−1. In addition, in series [5] (Q453E compared with wild type enzyme), the “fold loss of enzymatic efficacy kcat/KM, Q453E versus wild type” value is listed as “about 50 fold”. Besides, in series [5] (Q453E, substrate), the Km was found to be 2.8 ± 0.18 µM, the Vmax turned out to be 0.139 ± 0.003 µmol/mg/min and the kcat worked out at 0.09±0.00 S^−1. In addition, in series [6], the Km was determined as 0.113 ± 0.013 µM, the Vmax was found to be 0.285 ± 0.008 µmol/mg/min and the kcat is listed as 0.18±0.00 S^−1. Besides, in the series on PDE5A Q817A mutant, the “fold reduction of cGMP affinity by Q817A mutation” value was “about 60 fold”.

B1: catalytic domain of the PDE9A2 Q453E mutant (amino acids 181-506) (domain or fragment, human, UniProt O76083-2 181-506, looked up)
chain: PTYPKYLLSPETIEALRKPTFDVWLWEPNEMLSCLEHMYHDLGLVRDFSINPVTLRRWLFCVHDNYRNNPFHNFRHCFCVAQMMYSMVWLCSLQEKFSQTDILILMTAAICHDLDHPGYNNTYQINARTELAVRYNDISPLENHHCAVAFQILAEPECNIFSNIPPDGFKQIRQGMITLILATDMARHAEIMDSFKEKMENFDYSNEEHMTLLKMILIKCCDISNEVRPMEVAEPWVDCLLEEYFMQSDREKSEGLPVAPFMDRDKVTKATAEIGFIKFVLIPMFETVTKLFPMVEEIMLQPLWESRDRYEELKRIDDAMKELQKK
notes: phosphodiesterase 9A, isoform PDE9A2, human, catalytic domain, residues 181-506, GenBank BC009047; numbers count on: PDE9A2; also called PDE9Q453E; PDE9 Q453E mutant; source: E. coli BL21 (Codonplus), purified (Ni-NTA, Q-Sepharose, Sephacryl S300)
For B1, the binding result in series [7] is listed as “binds”.
